The source made the active and inactive calls. The rule behind the calls is not given here. Bounds are passed on as bounds.

One assay concerns HeLa. As to the kind of experiment: Antiproliferative activity against human HeLa cells after 72 hrs by trypan blue assay. The assay is classed as functional, cell-based.
The subject of the next assay is Nucleic Acid. As to the kind of experiment: Binding affinity to salmon testes DNA assessed as occurrence of intercalative molecular complex by linear flow dichroism. The class given is nucleic-acid assay. As to conditions: Salmonidae.
Assay [1] can be described thus: Antiproliferative activity against human JR8 cells after 72 hrs by trypan blue assay. The settings on record: JR8, 72 h. The class given is functional, cell-based.
The next assay concerns HL-60. As to the kind of experiment: Antiproliferative activity against human HL60 cells after 72 hrs by trypan blue assay. The class given is functional, cell-based. The settings on record: HL-60, 72 h.
Assay [2] deals with DNA topoisomerase 2-alpha (Homo sapiens) (UniProt P11388). As to the kind of experiment: Inhibition of human recombinant topoisomerase 2-mediated relaxation of supercoiled pBR322 DNA after 60 mins by agarose gel electrophoresis.
Sequence of DNA topoisomerase 2-alpha (Homo sapiens) (P11388 whole entry): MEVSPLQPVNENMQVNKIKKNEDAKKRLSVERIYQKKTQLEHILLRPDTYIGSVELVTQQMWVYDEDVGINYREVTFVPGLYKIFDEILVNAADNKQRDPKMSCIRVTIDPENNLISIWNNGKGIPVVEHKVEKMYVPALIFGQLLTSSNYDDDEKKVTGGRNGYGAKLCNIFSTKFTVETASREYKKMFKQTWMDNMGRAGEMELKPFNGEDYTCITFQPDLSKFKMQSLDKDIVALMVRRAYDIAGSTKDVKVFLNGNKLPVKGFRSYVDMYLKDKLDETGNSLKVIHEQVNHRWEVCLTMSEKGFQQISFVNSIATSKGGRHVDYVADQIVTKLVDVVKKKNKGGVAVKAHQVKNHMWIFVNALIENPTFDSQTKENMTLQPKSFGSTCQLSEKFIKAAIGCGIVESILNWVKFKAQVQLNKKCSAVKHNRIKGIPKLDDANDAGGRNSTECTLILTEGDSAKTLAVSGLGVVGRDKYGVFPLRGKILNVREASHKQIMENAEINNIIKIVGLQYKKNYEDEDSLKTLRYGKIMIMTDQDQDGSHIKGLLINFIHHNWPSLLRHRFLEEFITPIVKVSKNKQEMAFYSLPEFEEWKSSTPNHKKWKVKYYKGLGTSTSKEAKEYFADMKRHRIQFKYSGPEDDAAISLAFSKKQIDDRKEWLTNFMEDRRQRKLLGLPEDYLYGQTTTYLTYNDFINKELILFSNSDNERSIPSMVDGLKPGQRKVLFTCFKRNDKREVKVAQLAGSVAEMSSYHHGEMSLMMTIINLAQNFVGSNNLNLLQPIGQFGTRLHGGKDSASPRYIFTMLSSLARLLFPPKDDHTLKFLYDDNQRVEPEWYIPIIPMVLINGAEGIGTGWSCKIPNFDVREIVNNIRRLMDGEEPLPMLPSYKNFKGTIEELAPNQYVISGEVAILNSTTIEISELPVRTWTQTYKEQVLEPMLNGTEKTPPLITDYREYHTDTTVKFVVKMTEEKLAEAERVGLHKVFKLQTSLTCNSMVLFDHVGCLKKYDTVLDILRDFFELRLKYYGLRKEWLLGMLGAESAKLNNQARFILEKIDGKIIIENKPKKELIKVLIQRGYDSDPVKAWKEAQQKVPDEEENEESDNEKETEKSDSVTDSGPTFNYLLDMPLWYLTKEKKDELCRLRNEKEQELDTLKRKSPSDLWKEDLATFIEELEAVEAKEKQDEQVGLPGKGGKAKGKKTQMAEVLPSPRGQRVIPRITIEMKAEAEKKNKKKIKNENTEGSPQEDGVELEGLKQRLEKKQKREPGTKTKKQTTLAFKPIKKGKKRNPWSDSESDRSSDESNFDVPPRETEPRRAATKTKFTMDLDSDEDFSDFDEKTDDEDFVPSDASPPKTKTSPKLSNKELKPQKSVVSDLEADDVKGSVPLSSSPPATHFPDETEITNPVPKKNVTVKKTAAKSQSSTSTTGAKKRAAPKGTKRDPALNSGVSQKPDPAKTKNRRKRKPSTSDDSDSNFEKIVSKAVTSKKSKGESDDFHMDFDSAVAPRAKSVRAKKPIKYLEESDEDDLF
Assay [3] shares this target. The assay is described as follows: Inhibition of human recombinant topoisomerase 2 assessed as induction of linear pBR322 DNA formation at 50 uM by agarose gel electrophoresis.
The target is the same in assay [4]. As to the kind of experiment: Inhibition of human recombinant topoisomerase 2 catalytic activity at 20 uM by agarose gel electrophoresis.
The target is the same in assay [5]. As to the kind of experiment: Inhibition of human recombinant topoisomerase 2 assessed as induction of linear pBR322 DNA formation upto 20 uM by agarose gel electrophoresis.
Assay [6] has the same target. The assay is described as follows: Inhibition of human recombinant topoisomerase 2 assessed as induction of linear pBR322 DNA formation at 15 uM by agarose gel electrophoresis.
The target is the same in assay [7]. As to the kind of experiment: Inhibition of human recombinant topoisomerase 2-mediated relaxation of supercoiled pBR322 DNA at 10 uM after 60 mins by agarose gel electrophoresis.

For `O=C(/C=C/c1ccc[nH]1)c1ccccc1`, the IC50 (in the assay with HeLa; in [1]; in the assay on HL-60) was over 20 µM throughout. For the same molecule, the result in the assay with Nucleic Acid was inactive.

Turning to `Cc1c2ccncc2c(C)c2c1[nH]c1ccccc12` [ELLIPTECINE], in the assay with Nucleic Acid, the outcome was Active. This molecule also gave an IC50 in assay [1] of 1.1 µM.

For `O=C(/C=C/c1cccs1)c1ccc(Nc2ccnc3ccc4[nH]ccc4c23)cc1`, the IC50 in the assay on HeLa is 5.3 µM; in assay [1], 2.1 µM; with HL-60 it was 3.2 µM.

For the molecule `CC(=O)/C=C/c1ccc(Nc2ccnc3ccc4[nH]ccc4c23)cc1`, the IC50 was 7 µM with HeLa, 1.6 µM in assay [1] and 2.3 µM in the assay on HL-60. Besides, the Activity entry in assay [2] is “Dose-dependent effect”. Moreover, the outcome in assay [3], in assay [4] and in assay [5] was inactive. Also, the result in the assay on Nucleic Acid was Active.

For `O=C(/C=C/c1ccc([N+](=O)[O-])cc1)c1ccccc1`, the IC50 in the assay on HeLa is over 20 µM; in [1], 7.8 µM; in the assay with HL-60, 6 µM. For the same molecule, the result (in the assay with Nucleic Acid; in assay [4]) was inactive.

Regarding `COc1cc(NS(C)(=O)=O)ccc1Nc1c2ccccc2nc2ccccc12`, the result (in [6]; in the assay on Nucleic Acid) was Active.

As to `CC(=O)/C=C/c1ccccc1` [BUTENONE], in the assay on Nucleic Acid, the outcome was inactive.

On to `O=C(/C=C/c1ccc([N+](=O)[O-])cc1)c1ccc(Nc2ccnc3ccc4[nH]ccc4c23)cc1`, for which the IC50 in the assay on HeLa worked out at 10.4 µM; in assay [1] it was 1.2 µM; in the assay with HL-60, 4.4 µM. Besides, in [2], the Activity entry is “Dose-dependent effect”. Also, the outcome in assay [7] and in [4] was Active. Besides, the outcome in assay [3] and in assay [5] was inactive.

In the case of `O=C(/C=C/c1ccc[nH]1)c1ccc(Nc2ccnc3ccc4[nH]ccc4c23)cc1`, the IC50 was found to be 18.1 µM with HeLa, 3.3 µM in assay [1] and 5.6 µM in the assay with HL-60.

Broadly, the IC50 is the concentration that inhibits the measured activity by half.

Values taken from ChEMBL document CHEMBL1152492, “DNA-targeting pyrroloquinoline-linked butenone and chalcones: synthesis and biological evaluation” (Eur J Med Chem, 2009).
